Reference: patent US5160526A, “Alkene stabilizers for 3-isothiazolone compounds” (priority 1991, dated 1992)

What was measured:
[1] = assay type: physicochemical
Experimental: This solution was distributed into 6 vials (3 g each) and varying amounts of cyclohexene were added. The vials were then heated at 55° C. and analyzed periodically.

[2] = Experimental: A solution of 5-chloro-2methyl-3-isothiazolone ("5-Chloro") and 2-methyl-3-isothiazolone ("2-Methyl") (3.11 g) was prepared in 2-propanol (12.1 g). This solution was distributed in 6 vials. Water (2%) and varying amounts of norbornene were then added. These were then put in a 55° C. oven and analyzed periodically.
[3] = assay type: physicochemical; remark: listed apart in the source
Experimental: Varying amounts of DHP were added and the vials put in a 55° C. oven. Active ingredient analysis was done periodically.

Structure (SMILES): C1=CCCCC1 [cyclohexene]
- stabilizer function (in words) [1]: functions as a stabilizer

Structure (SMILES): C1=CC2CCC1C2 [norbornene]
- stability realized (in words) [2]: Some stability is realized
- stabilization properties in presence of water (in words) [2]: overwhelms the stabilization properties

Structure (SMILES): C1=COCCC1 [DHP, 3,4-Dihydro-2H-pyran]
- stability imparted to isothiazolones (in words) [3]: imparts no stability
